Test results as given in patent publication US12433868B2 (priority 2010, dated 2025).

How the values were obtained:
clinical = conditions: both, human, in vivo, po, 400 mg
[1] = both, human, in vivo, po, 400 mg
monkeypox = conditions: read-out: 50% effective concentration [EC50], inhibition of virus replication, in vitro; cited from earlier work
variola viruses = conditions: read-out: 50% effective concentration [EC50], inhibition of virus replication, in vitro; cited from earlier work
ectromelia virus (ECTV) = conditions: read-out: 50% effective concentration [EC50], inhibition of virus replication; cited from earlier work
vaccinia virus (VV) = conditions: read-out: 50% effective concentration [EC50], inhibition of virus replication, in vitro; cited from earlier work
VV = conditions: orally twice a day at 15 or 50 mg/kg of body weight for 5 days; intravenous VV; cited from earlier work
camelpox = conditions: read-out: 50% effective concentration [EC50], inhibition of virus replication; cited from earlier work
ECTV, VV, or CV = conditions: mouse, in vivo; cited from earlier work
cowpox virus (CV) = conditions: read-out: 50% effective concentration [EC50], inhibition of virus replication, in vitro; cited from earlier work
cytomegalovirus = assay type: cell-based
[2] = system: respiratory syncytial virus; assay type: cell-based
Vaccinia virus (NYCBH) = assay: microbe, parasite or virus in culture; assay type: cell-based; conditions: Orthopoxvirus vaccinia, Vero
[3] = system: Rift Valley fever virus (strain MP12); assay type: cell-based
Pichinde virus = assay type: cell-based
Zaire 79 strain of MPX = system: Zaire 79 strain of MPX; parameters: species or system cynomolgus monkeys (Macaca fascicularis); conditions: cynomolgus monkey, in vivo

With `O=C(NN1C(=O)C2C3C=CC(C4CC34)C2C1=O)c1ccc(C(F)(F)F)cc1` (single isomer, unassigned) [Form V, 4-trifluoromethyl-N-(3,3a,4,4a,5,5a,6,6a-octahydro-1,3-dioxo-4,6-ethenocycloprop[f]isoindol-2(1H)-yl)-benzamide] the AUC (clinical; AUC0-τ, Mean) was 20100 ng·h/mL, the AUC(0-inf) (clinical; AUC0-∞, Mean) was 22000 ng·h/mL and the Cmax (clinical; Mean) was 1230 ng/mL. For the same molecule, the Tmax (clinical; Mean) was 3.8 h, the half-life (clinical; t1/2, Mean) was 29.2 h and the “Cmax, Median” value [1] was 1180 ng/mL. For the same molecule, the “Tmax, Median” value [1] was 4 h and the “t1/2, Median” value [1] was 16.647 h.

For `O=C(NN1C(=O)C2C3C=CC(C4CC34)C2C1=O)c1ccc(C(F)(F)F)cc1` (stereo not shown) [ST-246, 4-trifluoromethyl-N-(3,3a,4,4a,5,5a,6,6a-octahydro-1,3-dioxo-4,6-ethenocycloprop[f]isoindol-2(1H)-yl)-benzamide], the EC50 (monkeypox) is listed as no more than 70 nM, the EC50 (variola viruses) is listed as no more than 70 nM and the EC50 (ectromelia virus (ECTV)) is listed as no more than 70 nM. The EC50 (vaccinia virus (VV)) was no more than 70 nM, the tail lesions (VV) was “significantly reduced” and the EC50 (camelpox) was no more than 70 nM. The “preventing or reducing mortality” value (ECTV, VV, or CV) was “highly effective in preventing or reducing mortality”, the “toxicity in animal models” value (ECTV, VV, or CV) was “nontoxic” and the EC50 (cowpox virus (CV)) was no more than 70 nM.

For `O=C(NN1C(=O)C2C3C=CC(C4CC34)C2C1=O)c1ccc(C(F)(F)F)cc1` (single isomer, unassigned) [Form I, 4-trifluoromethyl-N-(3,3a,4,4a,5,5a,6,6a-octahydro-1,3-dioxo-4,6-ethenocycloprop[f]isoindol-2(1H)-yl)-benzamide], the “inhibition of replication of unrelated virus” value (cytomegalovirus) was “do not inhibit”, the “inhibition of replication of unrelated virus” value [2] was “do not inhibit” and the Cmax (clinical; Median) was 1170 ng/mL. It also gave a Tmax (clinical; Median) of 3.5 h, a half-life (clinical; t1/2, Median) of 25.1 h and an inhibition at 5 µM (Vaccinia virus (NYCBH); 72 h, read-out: inhibition of vaccinia virus-induced CPE) greater than 50%. For the same molecule, the EC50 (Vaccinia virus (NYCBH); read-out: EC50 in the CPE assay) was 50 nM, the “AUC0-τ, Mean” value [1] was 15624.5 ng·h/mL and the “AUC0-∞, Mean” value [1] was 19922.02 ng·h/mL. The “Cmax, Mean” value [1] was 1068.9 ng/mL, the “Tmax, Mean” value [1] was 3.8 h and the “t1/2, Mean” value [1] was 27.446 h. For the same molecule, the “inhibition of replication of unrelated virus” value [3] was “do not inhibit”, the “inhibition of replication of unrelated virus” value (Pichinde virus) was “do not inhibit” and the “amount of viral DNA compared to vehicle-treated animals” value (Zaire 79 strain of MPX) was “significantly decrease”. For the same molecule, the “reduction in the level of virus replication compared to vehicle-treated group” value (Zaire 79 strain of MPX) was “more than 1,000 fold” and the survival (Zaire 79 strain of MPX) was “survive”.
